Measurements published in US8586591B2, “Aminopyrazine derivative and medicine” (Nippon Shinyaku Co., Ltd., priority 2009, dated 2013).
Structures can show the parent of a compound that is named as a salt.

Biological target: T1, JAK3 tyrosine kinase (Homo sapiens, UniProt P52333)
T1 construct: purchased Carnabioscience Co
T1 sequence (P52333 1-1124): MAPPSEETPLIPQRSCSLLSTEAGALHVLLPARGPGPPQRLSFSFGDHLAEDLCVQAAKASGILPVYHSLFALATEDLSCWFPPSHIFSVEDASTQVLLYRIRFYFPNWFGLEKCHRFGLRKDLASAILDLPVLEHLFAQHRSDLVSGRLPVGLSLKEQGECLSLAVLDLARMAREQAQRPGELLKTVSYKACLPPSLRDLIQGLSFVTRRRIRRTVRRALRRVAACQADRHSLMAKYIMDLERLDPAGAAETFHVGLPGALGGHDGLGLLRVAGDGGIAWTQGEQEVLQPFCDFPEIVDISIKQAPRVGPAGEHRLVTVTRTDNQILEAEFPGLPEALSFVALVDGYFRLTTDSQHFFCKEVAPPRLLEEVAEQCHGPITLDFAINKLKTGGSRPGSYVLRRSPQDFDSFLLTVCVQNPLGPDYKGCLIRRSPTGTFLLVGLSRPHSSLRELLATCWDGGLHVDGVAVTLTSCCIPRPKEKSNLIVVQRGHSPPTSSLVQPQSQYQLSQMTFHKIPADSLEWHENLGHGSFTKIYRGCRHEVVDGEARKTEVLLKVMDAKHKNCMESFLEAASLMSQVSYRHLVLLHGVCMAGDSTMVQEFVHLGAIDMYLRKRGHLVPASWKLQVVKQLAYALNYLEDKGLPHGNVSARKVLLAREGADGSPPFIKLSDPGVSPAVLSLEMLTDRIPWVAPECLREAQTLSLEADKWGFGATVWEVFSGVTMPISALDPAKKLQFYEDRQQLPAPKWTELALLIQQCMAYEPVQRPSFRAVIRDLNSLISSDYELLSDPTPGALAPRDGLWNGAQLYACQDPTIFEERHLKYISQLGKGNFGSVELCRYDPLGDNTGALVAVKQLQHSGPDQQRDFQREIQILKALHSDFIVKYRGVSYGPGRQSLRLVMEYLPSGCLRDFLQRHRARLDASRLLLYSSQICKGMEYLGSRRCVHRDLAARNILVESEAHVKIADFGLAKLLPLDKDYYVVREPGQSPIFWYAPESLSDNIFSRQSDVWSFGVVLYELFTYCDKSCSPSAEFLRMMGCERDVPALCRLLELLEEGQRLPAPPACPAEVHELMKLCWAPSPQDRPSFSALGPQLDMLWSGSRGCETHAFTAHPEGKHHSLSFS
Assay: Test 1: inhibitory activity to JAK3 tyrosine kinase (ELISA)
Type: biochemical
Settings: 25 μM ATP in substrate solution, 30° C. for 1 hour, n=2
Method: Test 1: Test for inhibitory activity to JAK2 and JAK3 tyrosine kinase 1. […] The test material was dissolved in dimethylsulfoxide (DMSO) to be 10 mM, and further diluted with DMSO to be 100-fold concentrations for measurement (1000, 300, 100, 30, 10, 3, 1, 0.3, 0.1, 0.03, 0.01 μM). In addition, solutions diluted with an assay buffer up to 20 times were used as solutions of the test material. As a negative control, a solution of DMSO diluted 20 times with an assay buffer was used. […] 2. Measurement of the Activities of JAK2 and JAK3 Tyrosine Kinases The activity was determined by ELISA. […] The absorbance was measured by means of a micro-plate reader (BIO-RAD; Model 3550) at 450 nm. 3. Analysis of the Results of the Measurement The measured absorbance was subjected to a non-linear regression analysis by means of a SAS system (SAS Institute Inc.), and the concentration (IC50) of the test material which inhibited 50% of the activity of each tyrosine kinase was estimated.

SMILES	IC50 [nM]
C[C@H](Nc1cc(OC2CCOCC2)cc(Nc2cnccn2)n1)c1ccc(F)cc1 [Example 157, (S)—N^2-[1-(4-Fluorophenyl)ethyl]-N^6-(pyrazin-2-yl)-4-(tetrahydro-2H-pyran-4-yloxy)pyridine-2,6-diamine hydrochloride]	150
C[C@H](Nc1nc(Nc2cnccn2)cc(N2CC[C@H]2C(N)=O)n1)c1ccc(F)cc1 [Example 156, (S)-1-{2-[(S)-1-(4-Fluorophenyl)ethylamino]-6-(pyrazin-2-ylamino)pyrimidin-4-yl}azetidine-2-carboxamide]	580
C[C@H](Nc1cc(-c2ncon2)cc(Nc2cnccn2)n1)c1ccc(F)cc1 [Example 147, (S)—N^2-[1-(4-Fluorophenyl)ethyl]-4-(1,2,4-oxadiazol-3-yl)-N^6-(pyrazin-2-yl)pyridine-2,6-diamine hydrochloride]	920
C[C@H](Nc1cc(C(=O)N2CCN(C)CC2)cc(Nc2cnccn2)n1)c1ccc(F)cc1 [Example 164, (S)-{2-[1-(4-Fluorophenyl)ethylamino]-6-(pyrazin-2-ylamino)pyridin-4-yl}(4-methylpiperazin-1-yl)methanone hydrochloride]	470
COC(=O)c1ccc(Nc2cnccn2)nc1N[C@@H](C)c1ccc(F)cc1 [Example 148, Methyl (S)-2-[1-(4-fluorophenyl)ethylamino]-6-(pyrazin-2-ylamino)nicotinate]	810
CC(=O)N1CCCN(c2cc(Nc3cnccn3)nc(N[C@@H](C)c3ccc(F)cc3)c2)CC1 [Example 130, (S)-1-(4-{2-[1-(4-fluorophenyl)ethylamino]-6-(pyrazin-2-ylamino)pyridin-4-yl}-1,4-diazepan-1-yl)ethanone]	570
CNS(=O)(=O)c1ccc(-c2cc(Nc3cnccn3)nc(N[C@@H](C)c3ccc(F)cc3)n2)cc1 [Example 135, (S)-4-{2-[1-(4-Fluorophenyl)ethylamino]-6-(pyrazin-2-ylamino)pyrimidin-4-yl}-N-methylbenzenesulfonamide hydrochloride]	320
COc1cc(Nc2cnccn2)nc(N[C@@H](C)c2ccc(F)cc2)c1 [Example 127, (S)—N^2-[1-(4-Fluorophenyl)ethyl]-4-methoxy-N^6-(pyrazin-2-yl)pyridine-2,6-diamine]	200
C[C@@H](c1ccc(F)cc1)N(C)c1cc(-c2cnn(C)c2)cc(Nc2cnccn2)n1 [Example 139, (S)—N^2-[1-(4-Fluorophenyl)ethyl]-N^2-methyl-4-(1-methyl-1H-pyrazol-4-yl)-N^6-(pyrazin-2-yl)pyridine-2,6-diamine hydrochloride]	290
C[C@H](Nc1cc(C(=O)NC(C)(C)C)cc(Nc2cnccn2)n1)c1ccc(F)cc1 [Example 151, (S)—N-t-Butyl-2-[1-(4-fluorophenyl)ethylamino]-6-(pyrazin-2-ylamino)isonicotinamide]	490
C[C@H](Nc1nc(Nc2cnccn2)cc(N2CC(C(N)=O)C2)n1)c1ccc(F)cc1 [Example 158, (S)-1-{2-[1-(4-Fluorophenyl)ethylamino]-6-(pyrazin-2-ylamino)pyrimidin-4-yl}azetidine-3-carboxamide]	39
C[C@H](Nc1cc(C(=O)N(C)C)cc(Nc2cnccn2)n1)c1ccc(F)cc1 [Example 149, (S)-2-[1-(4-Fluorophenyl)ethylamino]-N,N-dimethyl-6-(pyrazin-2-ylamino)isonicotinamide]	690
CNC(=O)c1cc(Nc2cnccn2)nc(N[C@@H](C)c2ccc(F)cc2)c1 [Example 160, (S)-2-[1-(4-Fluorophenyl)ethylamino]-N-methyl-6-(pyrazin-2-ylamino)isonicotinamide]	100
C[C@H](Nc1cc(CO)cc(Nc2cnccn2)n1)c1ccc(F)cc1 [Example 140, (S)-{2-[1-(4-Fluorophenyl)ethylamino]-6-(pyrazin-2-ylamino)pyridin-4-yl}methanol]	61
COCCOc1cc(Nc2cnccn2)nc(N[C@@H](C)c2ccc(F)cc2)c1 [Example 142, (S)—N^2-[1-(4-Fluorophenyl)ethyl]-4-(2-methoxyethoxy)-N^6-(pyrazin-2-yl)pyridine-2,6-diamine hydrochloride]	66
CCNC(=O)c1cc(Nc2cnccn2)nc(N[C@@H](C)c2ccc(F)cc2)c1 [Example 152, (S)—N-Ethyl-2-[1-(4-fluorophenyl)ethylamino]-6-(pyrazin-2-ylamino) isonicotinamide]	93
C[C@H](Nc1cc(C(=O)NCc2ccccc2)cc(Nc2cnccn2)n1)c1ccc(F)cc1 [Example 162, (S)—N-Benzyl-2-[1-(4-fluorophenyl)ethylamino]-6-(pyrazin-2-ylamino)isonicotinamide hydrochloride]	370
C[C@H](Nc1cc(Nc2cnccn2)cc(Nc2cnccn2)n1)c1ccc(F)cc1 [Example 137, (S)—N^2-[1-(4-Fluorophenyl)ethyl]-N^4,N^6-di(pyrazin-2-yl)pyridine-2,4,6-triamine]	160
CC(C)NC(=O)c1cc(Nc2cnccn2)nc(N[C@@H](C)c2ccc(F)cc2)c1 [Example 155, (S)-2-[1-(4-Fluorophenyl)ethylamino]-N-isopropyl-6-(pyrazin-2-ylamino)isonicotinamide]	390
C[C@H](Nc1cc(C(=O)N2CCCC2)cc(Nc2cnccn2)n1)c1ccc(F)cc1 [Example 154, (S)-{2-[1-(4-Fluorophenyl)ethylamino]-6-(pyrazin-2-ylamino)pyridin-4-yl}(pyrrolidin-1-yl)methanone]	340
C[C@H](Nc1cc(Nc2ccccn2)cc(Nc2cnccn2)n1)c1ccc(F)cc1 [Example 132, (S)—N^2-[1-(4-Fluorophenyl)ethyl]-N^6-(pyrazin-2-yl)-N^4-(pyridin-2-yl)pyridine-2,4,6-triamine]	350
C[C@H](Nc1nc(C#N)cc(Nc2cnccn2)n1)c1ccc(F)cc1 [Example 143, (S)-2-[1-(4-Fluorophenyl)ethylamino]-6-(pyrazin-2-ylamino)pyrimidine-4-carbonitrile]	2100
C[C@H](Nc1cc(C#N)cc(Nc2cnccn2)n1)c1ccc(F)cc1 [Example 144, (S)-2-[1-(4-Fluorophenyl)ethylamino]-6-(pyrazin-2-ylamino)isonicotinonitrile]	210
C[C@H](Nc1nc(Nc2cnccn2)cc(-c2ncon2)n1)c1ccc(F)cc1 [Example 146, (S)—N^2-[1-(4-Fluorophenyl)ethyl]-6-(1,2,4-oxadiazol-3-yl)-N^4-(pyrazin-2-yl)pyrimidine-2,4-diamine hydrochloride]	1400
COC(=O)c1cc(Nc2cnccn2)nc(N[C@@H](C)c2ccc(F)cc2)c1 [Example 134, Methyl (S)-2-[1-(4-fluorophenyl)ethylamino]-6-(pyrazin-2-ylamino)isonicotinate]	620
C[C@H](Nc1cc(C(=O)NC2CC2)cc(Nc2cnccn2)n1)c1ccc(F)cc1 [Example 163, (S)—N-Cyclopropyl-2-[1-(4-fluorophenyl)ethylamino]-6-(pyrazin-2-ylamino)isonicotinamide]	170
C[C@H](Nc1cc(Nc2ncccn2)cc(Nc2cnccn2)n1)c1ccc(F)cc1 [Example 131, (S)—N^2-[1-(4-Fluorophenyl)ethyl]-N^6-(pyrazin-2-yl)-N^4-(pyrimidin-2-yl)pyridine-2,4,6-triamine]	180
C[C@H](Nc1cc(N2CCC(O)CC2)cc(Nc2cnccn2)n1)c1ccc(F)cc1 [Example 129, (S)-1-{2-[1-(4-Fluorophenyl)ethylamino]-6-(pyrazin-2-ylamino)pyridin-4-yl}piperidin-4-ol]	380
C[C@H](Nc1cc(N2CCS(=O)(=O)CC2)cc(Nc2cnccn2)n1)c1ccc(F)cc1 [Example 128, 4-{2-[(1S)-1-(4-Fluorophenyl)ethylamino]-6-(pyrazin-2-ylamino)pyridin-4-yl}-1λ^6,4-thiomorpholin-1,1-dione]	46
